Legend:
[1] = 308.15 K; 101.33 kPa; Liquid; Vibrating tube method
[2] = refractive index (Na D-line) (dimensionless); conditions: 308.15 K; 101.33 kPa; Liquid; Standard Abbe refractometry
[3] = xn = mol fraction of the nth substance listed; conditions: 308.15 K, 101.3 kPa, Liquid
[4] = excess molar enthalpy (molar enthalpy of mixing); xn = mol fraction of the nth substance listed; conditions: 308.15 K, 101.3 kPa, Liquid

Cc1ccccc1C [1,2-dimethylbenzene]
Conditions	mass density [kg/m3]	refractive index
[1]	867.41	–
[2]	–	1.5031

Cc1ccccc1C [1,2-dimethylbenzene] + CCCCOC(C)=O
Conditions	excess molar enthalpy [kcal/mol]	excess molar volume [m3/mol]
[3], x2 = 0.1121	–	-2.8e-08
[3], x2 = 0.1983	–	-6.3e-08
[3], x2 = 0.2744	–	-8.2e-08
[3], x2 = 0.3652	–	-9.7e-08
[3], x2 = 0.4665	–	-1.09e-07
[3], x2 = 0.5691	–	-1.08e-07
[3], x2 = 0.606	–	-1.06e-07
[3], x2 = 0.7502	–	-9e-08
[3], x2 = 0.8041	–	-8.3e-08
[3], x2 = 0.9032	–	-5.6e-08
[4], x2 = 0.0707	-0.00215	–
[4], x2 = 0.1859	-0.00296	–
[4], x2 = 0.2214	-0.00478	–
[4], x2 = 0.3134	-0.00621	–
[4], x2 = 0.3539	-0.00652	–
[4], x2 = 0.4773	-0.00693	–
[4], x2 = 0.5868	-0.00717	–
[4], x2 = 0.6462	-0.00696	–
[4], x2 = 0.8002	-0.00526	–
[4], x2 = 0.8364	-0.00454	–

Cc1cccc(C)c1 [1,3-dimethylbenzene]
Conditions	mass density [kg/m3]	refractive index
[1]	851.53	–
[2]	–	1.4946

Cc1cccc(C)c1 [1,3-dimethylbenzene] + CCCCOC(C)=O
Conditions	excess molar enthalpy [kcal/mol]	excess molar volume [m3/mol]
[3], x2 = 0.1509	–	-7.7e-08
[3], x2 = 0.1651	–	-8.3e-08
[3], x2 = 0.2243	–	-9.4e-08
[3], x2 = 0.314	–	-1.27e-07
[3], x2 = 0.3921	–	-1.42e-07
[3], x2 = 0.5651	–	-1.44e-07
[3], x2 = 0.669	–	-1.31e-07
[3], x2 = 0.8091	–	-9.7e-08
[3], x2 = 0.8816	–	-5.2e-08
[3], x2 = 0.9052	–	-4.3e-08
[4], x2 = 0.1568	0.00237	–
[4], x2 = 0.1886	0.00332	–
[4], x2 = 0.2879	0.00409	–
[4], x2 = 0.4265	0.00523	–
[4], x2 = 0.4818	0.00528	–
[4], x2 = 0.5375	0.00554	–
[4], x2 = 0.6365	0.00559	–
[4], x2 = 0.7881	0.00457	–
[4], x2 = 0.8286	0.0043	–
[4], x2 = 0.9169	0.00284	–

Cc1ccc(C)cc1 [1,4-dimethylbenzene]
Conditions	mass density [kg/m3]	refractive index
[1]	847.91	–
[2]	–	1.4879

c1ccccc1 [benzene]
Conditions	mass density [kg/m3]	refractive index
[1]	862.93	–
[2]	–	1.4921

CCCCOC(C)=O [butyl ethanoate]
Conditions	mass density [kg/m3]	refractive index
[1]	865.45	–
[2]	–	1.3908

CCCCOC(C)=O [butyl ethanoate] + C1CCCCC1
Conditions	excess molar enthalpy [kcal/mol]	excess molar volume [m3/mol]
[3], x1 = 0.1062	–	3.47e-07
[3], x1 = 0.1575	–	4.35e-07
[3], x1 = 0.223	–	5.21e-07
[3], x1 = 0.3004	–	6.04e-07
[3], x1 = 0.4851	–	6.74e-07
[3], x1 = 0.4863	–	6.85e-07
[3], x1 = 0.5412	–	6.54e-07
[3], x1 = 0.6489	–	6.07e-07
[3], x1 = 0.735	–	4.98e-07
[3], x1 = 0.7661	–	4.06e-07
[3], x1 = 0.8854	–	1.95e-07
[4], x1 = 0.1409	0.195	–
[4], x1 = 0.1975	0.256	–
[4], x1 = 0.2672	0.307	–
[4], x1 = 0.3389	0.333	–
[4], x1 = 0.4035	0.331	–
[4], x1 = 0.4961	0.3	–
[4], x1 = 0.5517	0.268	–
[4], x1 = 0.6466	0.205	–
[4], x1 = 0.7965	0.112	–
[4], x1 = 0.8311	0.0947	–
[4], x1 = 0.9061	0.0565	–

CCCCOC(C)=O [butyl ethanoate] + Cc1ccc(C)cc1
Conditions	excess molar enthalpy [kcal/mol]	excess molar volume [m3/mol]
[3], x1 = 0.0881	–	-8e-08
[3], x1 = 0.163	–	-1.59e-07
[3], x1 = 0.314	–	-2.47e-07
[3], x1 = 0.3481	–	-2.81e-07
[3], x1 = 0.5001	–	-3.16e-07
[3], x1 = 0.6164	–	-3.18e-07
[3], x1 = 0.738	–	-2.82e-07
[3], x1 = 0.7871	–	-2.64e-07
[3], x1 = 0.8758	–	-2.21e-07
[3], x1 = 0.9179	–	-1.71e-07
[4], x1 = 0.0722	-0.00356	–
[4], x1 = 0.1892	-0.00856	–
[4], x1 = 0.3182	-0.0114	–
[4], x1 = 0.359	-0.0122	–
[4], x1 = 0.4828	-0.0138	–
[4], x1 = 0.6364	-0.0136	–
[4], x1 = 0.6512	-0.0136	–
[4], x1 = 0.7888	-0.0107	–
[4], x1 = 0.8394	-0.00882	–
[4], x1 = 0.9169	-0.00545	–

CCCCOC(C)=O [butyl ethanoate] + Cc1ccccc1
Conditions	excess molar enthalpy [kcal/mol]	excess molar volume [m3/mol]
[3], x1 = 0.055	–	-1.9e-08
[3], x1 = 0.1581	–	-6e-08
[3], x1 = 0.2744	–	-8.2e-08
[3], x1 = 0.442	–	-1e-07
[3], x1 = 0.5243	–	-1.03e-07
[3], x1 = 0.6231	–	-1.02e-07
[3], x1 = 0.7619	–	-8.9e-08
[3], x1 = 0.849	–	-6.9e-08
[3], x1 = 0.9052	–	-5.1e-08
[4], x1 = 0.152	-0.00698	–
[4], x1 = 0.1873	-0.0086	–
[4], x1 = 0.2873	-0.012	–
[4], x1 = 0.3922	-0.0136	–
[4], x1 = 0.4465	-0.0143	–
[4], x1 = 0.502	-0.0148	–
[4], x1 = 0.543	-0.0151	–
[4], x1 = 0.6	-0.0148	–
[4], x1 = 0.7435	-0.0124	–
[4], x1 = 0.8705	-0.0086	–
[4], x1 = 0.8898	-0.00765	–

CCCCOC(C)=O [butyl ethanoate] + c1ccccc1
Conditions	excess molar enthalpy [kcal/mol]	excess molar volume [m3/mol]
[3], x1 = 0.0901	–	4.2e-08
[3], x1 = 0.2214	–	7e-08
[3], x1 = 0.3662	–	7.6e-08
[3], x1 = 0.4623	–	6.9e-08
[3], x1 = 0.543	–	6e-08
[3], x1 = 0.6504	–	4.4e-08
[3], x1 = 0.7052	–	3.6e-08
[3], x1 = 0.7601	–	2.8e-08
[3], x1 = 0.8505	–	1.7e-08
[3], x1 = 0.937	–	6e-09
[4], x1 = 0.1269	-0.00179	–
[4], x1 = 0.2523	-0.00335	–
[4], x1 = 0.4029	-0.005	–
[4], x1 = 0.4575	-0.00543	–
[4], x1 = 0.4958	-0.00586	–
[4], x1 = 0.5619	-0.00631	–
[4], x1 = 0.6599	-0.00655	–
[4], x1 = 0.7279	-0.00621	–
[4], x1 = 0.7714	-0.00586	–
[4], x1 = 0.8714	-0.00488	–

C1CCCCC1 [cyclohexane]
Conditions	mass density [kg/m3]	refractive index
[1]	764.43	–
[2]	–	1.4205

Cc1ccccc1 [toluene]
Conditions	mass density [kg/m3]	refractive index
[1]	852.8	–
[2]	–	1.4885

From the NIST ThermoML archive (doi:10.1016/j.fluid.2005.06.011)
